Values quoted from earlier work as cited in patent US10881613B2, “Fumarate polymersomes” (UCL BUSINESS LTD, priority 2016, dated 2021).

Conditions: in vivo

- half life (metabolized by the liver): 2 h
SMILES: CC(O)CO (stereo not shown) [Propylene glycol]
